Reference: US9833497B2, “Human originated EGF domain proteins and use of the same” (CHENGDU SOURCEBIO LIMITED-LIABILITY COMPANY, priority 2013, dated 2017)

Legend:
Type in all cases: cell-based
[1] = system: Citrobacter diversus; assay: MIC against Gram-negative bacteria: Citrobacter diversus; conditions: 5×10^5 CFU/mL
Outline: (§1)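 Antibacterial activity of purified human EGF domain proteins: two-fold concentration series, triplicate wells, LB broth, 5×10^5 CFU/mL bacteria, 37° C shaking incubation. The lowest concentration without growth defines the MIC.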

[2] = system: Proteus vulgaris; assay: MIC against Gram-negative bacteria: Proteus vulgaris; conditions: 5×10^5 CFU/mL
Outline: as §1

[3] = system: Enterobacter cloacae; assay: MIC against Gram-negative bacteria: Enterobacter cloacae; conditions: 5×10^5 CFU/mL
Outline: as §1

[4] = system: Aeromonas hydrophila; assay: MIC against Gram-negative bacteria: Aeromonas hydrophila; conditions: 5×10^5 CFU/mL
Outline: as §1

[5] = system: Moraxella catarrhalis; assay: MIC against Gram-negative bacteria: Moraxella catarrhalis; conditions: 5×10^5 CFU/mL
Outline: as §1

[6] = system: E. coli BL21; assay: MIC against Gram-negative bacteria: E. coli BL21; conditions: 5×10^5 CFU/mL
Outline: as §1

[7] = system: Serratia marcescens; assay: MIC against Gram-negative bacteria: Serratia marcescens; conditions: 5×10^5 CFU/mL
Outline: as §1

[8] = system: E. coli DH5α; assay: Antibacterial activity: MIC and growth curve against E. coli DH5α in 96-well plate; conditions: minimal inhibitory concentration against E. coli DH5α; 96-well plate, 5×10^5 CFU/mL, 37° C., judged after 8 h
Outline: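 Log-phase bacteria (OD600 ~0.5) resuspended in LB at 5×10^5 CFU/mL, exposed to recombinant protein at 50, 25, 12.5 μg/mL final in triplicate, 37 °C shaking at 175 rpm. OD600 read every 30 min; MIC is lowest concentration showing no growth.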

[9] = system: Proteus mirabilis; assay: MIC against Gram-negative bacteria: Proteus mirabilis; conditions: 5×10^5 CFU/mL
Outline: as §1

[10] = system: Pseudomonas aeruginosa; assay: MIC against Gram-negative bacteria: Pseudomonas aeruginosa; conditions: 5×10^5 CFU/mL
Outline: as §1

[11] = system: Klebsiella pneumonia; assay: MIC against Gram-negative bacteria: Klebsiella pneumonia; conditions: 5×10^5 CFU/mL
Outline: as §1

[12] = Citrobacter diversus, 96-well plate, 37° C., 10 h
[13] = Proteus vulgaris, 96-well plate, 37° C., 10 h
[14] = Enterobacter cloacae, 96-well plate, 37° C., 10 h
[15] = Aeromonas hydrophila, 96-well plate, 37° C., 10 h
[16] = Moraxella catarrhalis, 96-well plate, 37° C., 10 h
[17] = E. coli BL21, 96-well plate, 37° C., 10 h
[18] = Serratia marcescens, 96-well plate, 37° C., 10 h
[19] = Proteus mirabilis, 96-well plate, 37° C., 10 h
[20] = Pseudomonas aeruginosa, 96-well plate, 37° C., 10 h
[21] = Klebsiella pneumonia, 96-well plate, 37° C., 10 h
[22] = C. diversus, 10 h cultivation at 37° C.
[23] = P. vulgaris, 10 h cultivation at 37° C.
[24] = E. cloacae, 10 h cultivation at 37° C.
[25] = A. hydrophila, 10 h cultivation at 37° C.
[26] = M. catarrhalis, 10 h cultivation at 37° C.
[27] = E. coli BL21, 10 h cultivation at 37° C.
[28] = S. marcescens, 10 h cultivation at 37° C.
[29] = P. mirabilis, 10 h cultivation at 37° C.
[30] = P. aeruginosa, 10 h cultivation at 37° C.
[31] = K. pneumonia, 10 h cultivation at 37° C.

Substance	MIC [8]	MIC (μg/mL) C. diversus [1, 22]	MIC (μg/mL) P. vulgaris [2, 23]	MIC (μg/mL) E. cloacae [3, 24]	MIC (μg/mL) A. hydrophila [4, 25]	MIC (μg/mL) M. catarrhalis [5, 26]	MIC (μg/mL) E. coli BL21 [6, 27]	MIC (μg/mL) S. marcescens [7, 28]	MIC (μg/mL) P. mirabilis [9, 29]	MIC (μg/mL) P. aeruginosa [10, 30]	MIC (μg/mL) K. pneumonia [11, 31]	further results
PRT76 (EVDLCYSRPCGPHGRCRSREGGYTCLCRDGYTGEHCE; listed as Homo sapiens)	25 µg/mL											MIC (μg/mL) C. diversus [1, 12]: 25 µg/mL; MIC (μg/mL) P. vulgaris [2, 13]: 12.5 µg/mL; MIC (μg/mL) E. cloacae [3, 14]: 25 µg/mL; MIC (μg/mL) A. hydrophila [4, 15]: 12.5 µg/mL; MIC (μg/mL) M. catarrhalis [5, 16]: 100 µg/mL; MIC (μg/mL) E. coli BL21 [6, 17]: 12.5 µg/mL; MIC (μg/mL) S. marcescens [7, 18]: 50 µg/mL; MIC (μg/mL) P. mirabilis [9, 19]: 12.5 µg/mL; MIC (μg/mL) P. aeruginosa [10, 20]: 25 µg/mL; MIC (μg/mL) K. pneumonia [11, 21]: 12.5 µg/mL
PRT1301 (DNDDCVAHKCRHGAQCVDTINGYTCTCPQGFSGPFCE; listed as Homo sapiens)	12.5 µg/mL											MIC against C. diversus [1, 12]: 12.5 µg/mL; MIC against P. vulgaris [2, 13]: 25 µg/mL; MIC against E. cloacae [3, 14]: 50 µg/mL; MIC against A. hydrophila [4, 15]: 25 µg/mL; MIC against M. catarrhalis [5, 16]: 50 µg/mL; MIC against E. coli BL21 [6, 17]: 12.5 µg/mL; MIC against S. marcescens [7, 18]: 50 µg/mL; MIC against P. mirabilis [9, 19]: 12.5 µg/mL; MIC against P. aeruginosa [10, 20]: 12.5 µg/mL; MIC against K. pneumonia [11, 21]: 12.5 µg/mL
PRT257 (CTDGHRGGCSEHANCLSTGLNTRRCECHAGYVGDGLQC; listed as Homo sapiens)	12.5 µg/mL	12.5 µg/mL	12.5 µg/mL	12.5 µg/mL	25 µg/mL	25 µg/mL	25 µg/mL	12.5 µg/mL	12.5 µg/mL	12.5 µg/mL	25 µg/mL	
PRT258 (CSHPDRGGCSENAECVPGSLGTHHCTCHKGWSGDGRVC; listed as Homo sapiens)	50 µg/mL	25 µg/mL	50 µg/mL	50 µg/mL	12.5 µg/mL	12.5 µg/mL	12.5 µg/mL	25 µg/mL	25 µg/mL	50 µg/mL	12.5 µg/mL	
PRT586 (CPCPEGPGSQRHFATSCHQDEYSQQIVCHCRAGYTGLRCEACAPGHFGDPSRPGGRCQL; listed as Homo sapiens)	12.5 µg/mL											MIC against C. diversus ([1]; 96-well plate, 37° C., 10 h): 12.5 µg/mL; MIC against P. vulgaris ([2]; 96-well plate, 37° C., 10 h): 25 µg/mL; MIC against E. cloacae ([3]; 96-well plate, 37° C., 10 h): 12.5 µg/mL; MIC against A. hydrophila ([4]; 96-well plate, 37° C., 10 h): 50 µg/mL; MIC against M. catarrhalis ([5]; 96-well plate, 37° C., 10 h): 25 µg/mL; MIC against E. coli BL21 ([6]; 96-well plate, 37° C., 10 h): 50 µg/mL; MIC against S. marcescens ([7]; 96-well plate, 37° C., 10 h): 12.5 µg/mL; MIC against P. mirabilis ([9]; 96-well plate, 37° C., 10 h): 50 µg/mL; MIC against P. aeruginosa ([10]; 96-well plate, 37° C., 10 h): 12.5 µg/mL; MIC against K. pneumonia ([11]; 96-well plate, 37° C., 10 h): 50 µg/mL
PRT778 (QNQSCPVNYCYNQGHCYISQTLGCQPMCTCPPAFTDSRCF; listed as Homo sapiens)	50 µg/mL	12.5 µg/mL	25 µg/mL	50 µg/mL	12.5 µg/mL	12.5 µg/mL	12.5 µg/mL	12.5 µg/mL	12.5 µg/mL	50 µg/mL	12.5 µg/mL	
